# Experimental data as given in patent publication US20230355763A1, “NANOPARTICLE VACCINES AND USES THEREOF FOR PROPHYLAXIS AND TREATMENT OF ATHEROSCLEROSIS USING PEPTIDE 210 AS AN ANTIGEN” (CEDARS-SINAI MEDICAL CENTER, priority 2022, published 2023).
# Tests used:
# A2Kb Tg ApoE-/- mice = test: Functional expression of A2Kb transgene (A2V7 immunization); type: in vivo, mouse; settings: male mice, 20 μg/100 μl s.c. in IFA; compared to IFA-injected mice, P<0.05
# Protocol: Male A2Kb Tg ApoE^−/− mice were immunized with the HLA-A*02:01-restricted peptide A2V7 from human hepatitis C virus (HCV NS5a 1987-1995, VLSDFKTWL (SEQ ID NO:34); ProImmune) emulsified in incomplete Freund's adjuvant (IFA; MP Biomedicals) at 9 and 10 weeks of age by subcutaneous injection at a dose of 20 μg/100 μl. Mice immunized with 100 μl IFA alone served as control. Mice were euthanized at 11 weeks of age. HLA-A*02:01 restricted antigen specific immune response was evaluated by flow cytometric analysis of splenocytes stained with CD19 (6D5), CD8a (KT15), and PE-conjugated HLA-A*02:01/A2V7-pentamer (ProImmune).
# HLA-A*02:01 = biological target: T1, HLA-A*02:01 (Homo sapiens, UniProt P04439, D140Y/D185E/D98H/E176V/E277Q/G131W/G231S/I119V/I121R/I166T/I218V/L300P/L318F/N151K/N90K/P208A/P217A/Q86G/Q94H/R138H/R169H/T345S); test: REVEAL binding assay of 9-mer P210 peptides; settings: for binding to HLA-A*02:01 (REVEAL binding score), in words: tested by ProImmune
# T1 construct: purchased ProImmune (contracted REVEAL assay service)
# Protocol: The human Class-I HLA that occurs with the highest frequency in North America is HLA-A*02:01; and P210 epitope binding to HLA-A*02:01 was tested by ProImmune using the REVEAL assay. The REVEAL assay used 9-mer sequential peptides of P210 to assess binding to HLA-A*02:01 (Table 2): a plurality of 9-amino acid fragments, each identical to residues 1-9, 2-10, 3-11, 4-12, 5-13, 6-14, 7-15, 8-16, 9-17, 10-18, 11-19, or 12-20 of P210. […] ApOBKTTKQSFDL (SEQ ID NO:2) pentamer was able to detect a small but significant population of P210-specific CD8+ T cells in PBMCs from healthy HLA-A*02:01(+) volunteers (FIG. 7B-7E).
# (§1) Proimmune was contracted to screen for potential binding epitopes in P210 to HLA-A*02:01. […] For pentamer staining, commercially available HLA-A*02:01 typed cryo-preserved PBMCs (Immunospot) were thawed, rinsed in anti-aggregation solution (Immunospot) and divided into 2×10^6 cell aliquots. ApOBKTTKQSFDL (SEQ ID NO:2) pentamer staining was performed according to manufacturer's instruction, with the HLA-A*02:01 Negative Pentamer (ProImmune) as negative control. Each sample stained for ApOBKTTKQSFDL (SEQ ID NO:2) pentamer had its corresponding negative control stain. Cells were washed and then stained for CD8 (LT8) andddCD19 (HIB19). Cells were again washed after staining and resuspended in 1% paraformaldehyde in 1% BSA/0.1% sodium azide and analyzed. ApOBKTTKQSFDL (SEQ ID NO:2) pentamer positive cells for each sample were determined based on the corresponding Negative Pentamer.
# [1] = tested on: PBMCs from HLA-A*02:01(+) volunteers; test: ApoB KTTKQSFDL pentamer(+) CD8+ T cells in human PBMCs cultured with P210; type: cell-based; settings: PBMCs cultured with 20 μg/ml P210 for 5 days
# Protocol: as §1
# human PBMCs [2] = test: Peptide stimulation of human PBMC (T effector / effector memory, Response Index); type: cell-based; settings: 20 μg/ml P210, 72 h; ACS PBMCs compared to controls
# Protocol: Cryo-preserved PBMCs were thawed, rinsed and cultured as in AIM assay but without resting. Cells were stimulated with 20 μg/ml P210 peptide or 0.5× T cell stimulation cocktail containing phorbol 12-myristate 13-acetate (PMA) and ionomycin (Thermo Fisher) with non-treated cells serving as negative control. Culture medium was added at ⅓ of the starting volume 48 hours later to replenish the nutrients in the medium. Cells were harvested 72 hours after seeding, stained for viability (LIVE/DEAD Fixable Aqua Dead Stain Kit, ThermoFisher), and subjected to cell surface staining for flow cytometry using the following antibodies: CD3, CD4, CD8, CD45RA, CD45RO, CD62L, and CD197 (CCR7). Isotypes were used as staining control. CD4^+ or CD8^+ T Effector cells were gated on CD45RO^+CD62L^−CD197^−. T Effector Memory cells were CD45RO^+CD45RA^−CD62L^−CD197^−.
# Results were Tabulated as Response Index Using the Following Calculation:
# (% peptide stimulation−% no stimulation)/(% cocktail stimulation)×100.
# The results are expressed as Response Index to account for inherent variations introduced by culturing cells in vitro over time, controlled for by assessing response relative to baseline cell phenotype (% no stimulation) and maximal stimulation (% cocktail stimulation) for each subject PBMC. Each data point represents one subject.
# human PBMCs [3] = test: Activation Induced Marker (AIM) assay in human PBMC; type: cell-based
# Protocol: Cryo-preserved PBMCs were thawed, rinsed in anti-aggregation solution (Immunospot), and seeded in culture plates at a density of 3×10^6 cells per ml of RPMI 1640 medium supplemented with 10% heat-inactivated pooled human serum and 1× antibiotic/antimycotic. After resting for 4 hours, cells were preincubated with 0.5 mg/ml anti-CD40 antibody for 15 minutes then stimulated with 20 μg/ml P210 peptide, 0.5× T cell stimulation cocktail containing PMA and ionomycin (Thermo Fisher), or CMV (pp65) Peptide Pool (StemCell Tech) as a non-relevant antigen control, whereas cells without treatment served as non-stimulated control. Cells were harvested 16 hours after seeding, stained for viability (LIVE/DEAD Fixable Aqua Dead Stain Kit, Thermo Fisher), and subjected to cell surface staining for flow cytometry using the following antibodies: CD4, CD8, CD25, CD69, OX40 (CD134), CD137 (4-1 BB) and CD154 (CD40L). Isotypes were used as staining control and eFluor506 labelled CD14, CD16 and CD19 antibodies were used as dump staining to exclude B cells, dendritic cells, macrophages, granulocytes, eosinophil cells and neutrophil cells. The results are expressed as fold change (ratio between the signal in the antigen stimulated condition and the signal in the unstimulated condition) for each subject, consistent with the reported AIM assay.
# [4] = 20 μg/ml P210, 16 h, ACS patients compared to control subjects
sequence,measurement,setting,value
"VLSDFKTWL [Peptide A2V7, HLA-A*02:01-restricted peptide from human hepatitis C virus (HCV NS5a 1987-1995)]",A2V7-pentamer+ CD8+ T cells in the spleen,A2Kb Tg ApoE-/- mice,significantly increased
KTTKQSFDL (listed as Homo sapiens) [Peptide 1],binding to HLA-A*02:01 (REVEAL binding score),HLA-A*02:01; sequential 9-mer P210 peptides,KTTKQSFDL*
same,"binding to HLA-A*02:01 (REVEAL binding score), in words",HLA-A*02:01; listed as First 9-mer sequence in P210,high binding score
same,"binding to HLA-A*02:01 (REVEAL binding score), in words",HLA-A*02:01; listed as first 9-mer,"scored well, comparable to the positive control"
"KTTKQSFDLSVKAQYKKNKH (listed as Homo sapiens) [Peptide P210, ApoB-100 derived peptide P210 (ApoB-100 3136-3155)]",tested samples with an increase of pentamer specific CD8+ T cells,[1],5 out of 8
same,CD4+ T effector cell response to P210,human PBMCs [2],not significantly different
same,CD8+ T effector memory response to P210,human PBMCs [2],significant increase
same,CD8+ T effector response to P210,human PBMCs [2],significant increase
same,CD8+CD69+CD134+ T cells after P210 stimulation,human PBMCs [3]; [4],no such increase was observed
same,mean increase in CD4+CD69+CD134+ T cells after P210 stimulation,human PBMCs [3]; [4],1.5 fold
same,"markers for other AIM(+) cells (CD25+CD134+, CD69+CD154+, CD134+CD137+)","human PBMCs [3]; after P210 stimulation, ACS vs controls",not different compared to Controls
